Laboratory results taken from PubChem BioAssay (NCI).
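Results reflect a 48-hour exposure of cells in 96-well plates to compound at five concentrations. At the GI50, growth is halved. Definition used: TGI = concentration required for complete inhibition of growth.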

Assays:
Experiment in all cases: NCI-60 cell line screen, 48 h
[1] = system: HS 578T breast
[2] = system: OVCAR-4 ovarian
[3] = system: UACC-62 melanoma
[4] = system: CCRF-CEM leukemia
[5] = system: COLO 205 colon
[6] = system: A549 NSCLC
[7] = system: MCF7 breast
[8] = system: SN12C renal
[9] = system: HCT-116 colon
[10] = system: U251 CNS
[11] = system: PC-3 prostate
[12] = system: HL-60(TB) leukemia
[13] = system: SR leukemia
[14] = system: MDA-MB-435
[15] = system: SK-OV-3 ovarian
[16] = system: SK-MEL-28 melanoma
[17] = system: CAKI-1 renal
[18] = system: SF-539 CNS
[19] = system: HCT-15 colon
[20] = system: OVCAR-5 ovarian
[21] = system: K-562 leukemia
[22] = system: NCI/ADR-RES ovarian
[23] = system: NCI-H226 lung
[24] = system: SK-MEL-2 melanoma
[25] = system: UO-31 renal
[26] = system: SW-620 colon
[27] = system: A498 renal
[28] = system: KM12 colon
[29] = system: HT29 colon
[30] = system: HCC-2998 colon
[31] = system: NCI-H23 lung
[32] = system: ACHN renal
[33] = system: HOP-92 NSCLC
[34] = system: MALME-3M melanoma
[35] = system: SF-268 CNS
[36] = system: 786-0 renal
[37] = system: NCI-H522 lung
[38] = system: HOP-62 NSCLC
[39] = system: RXF 393 renal
[40] = system: TK-10 renal
[41] = system: MDA-MB-231 breast
[42] = system: SNB-19 CNS
[43] = system: M14 melanoma
[44] = system: OVCAR-8 ovarian
[45] = system: IGROV1 ovarian
[46] = system: OVCAR-3 ovarian
[47] = system: T-47D breast
[48] = system: UACC-257 melanoma
[49] = system: MOLT-4 leukemia
[50] = system: DU-145 prostate

C=C1c2c(C)nn(-c3ccc(OC)cc3)c2N(C)C23C[C@@H]1C1(C)c4c(C)nn(-c5ccc(OC)cc5)c4N(C)C(C)(C[C@H]12)C3 (some centres undefined)
GI50 [1]: 6.23 µM
TGI [1]: 77.4 µM
GI50 [2]: 3.56 µM
TGI [2]: 54.6 µM
GI50 [3]: 2.86 µM
TGI [3]: > 100 µM
GI50 [4]: 3.41 µM
TGI [4]: > 100 µM
GI50 [5]: 2.2 µM
TGI [5]: 5.11 µM
GI50 [6]: 2.69 µM
TGI [6]: 55.7 µM
GI50 [7]: 2.69 µM
TGI [7]: > 100 µM
GI50 [8]: 3.65 µM
TGI [8]: > 100 µM
GI50 [9]: 2.82 µM
TGI [9]: 12.8 µM
GI50 [10]: 2.67 µM
GI50 [11]: 1.75 µM
TGI [11]: 7.77 µM
GI50 [12]: 2.54 µM
TGI [12]: > 100 µM
GI50 [13]: 3.16 µM
TGI [13]: > 100 µM
GI50 [14]: 3.4 µM
TGI [14]: > 100 µM
GI50 [15]: 3.39 µM
TGI [15]: 16.2 µM
GI50 [16]: 5.86 µM
TGI [16]: > 100 µM
GI50 [17]: 2.67 µM
TGI [17]: > 100 µM
GI50 [18]: 3.16 µM
TGI [18]: 16.8 µM
GI50 [19]: 3.11 µM
TGI [19]: > 100 µM
GI50 [20]: 11.3 µM
TGI [20]: > 100 µM
GI50 [21]: 3.6 µM
TGI [21]: > 100 µM
GI50 [22]: 4.04 µM
TGI [22]: > 100 µM
GI50 [23]: 4.44 µM
TGI [23]: 63 µM
GI50 [24]: 3.23 µM
TGI [24]: 9.94 µM
GI50 [25]: 2.61 µM
TGI [25]: > 100 µM
GI50 [26]: 3.63 µM
TGI [26]: > 100 µM
GI50 [27]: 2.47 µM
TGI [27]: 16.4 µM
GI50 [28]: 3.75 µM
TGI [28]: > 100 µM
GI50 [29]: 3.24 µM
TGI [29]: > 100 µM
GI50 [30]: 4.07 µM
TGI [30]: > 100 µM
GI50 [31]: 3.86 µM
TGI [31]: 53.6 µM
GI50 [32]: 3.3 µM
TGI [32]: 19 µM
GI50 [33]: 1.18 µM
TGI [33]: 5.4 µM
GI50 [34]: 3.24 µM
TGI [34]: > 100 µM
GI50 [35]: 3.63 µM
TGI [35]: 70.5 µM
GI50 [36]: 4.23 µM
TGI [36]: 19.7 µM
GI50 [37]: 2.77 µM
TGI [37]: 11 µM
GI50 [38]: 4.28 µM
TGI [38]: 18.9 µM
GI50 [39]: 1.9 µM
TGI [39]: 6.08 µM
GI50 [40]: 3.63 µM
TGI [40]: 11.8 µM
GI50 [41]: 3.11 µM
TGI [41]: 15.7 µM
GI50 [42]: 4.34 µM
TGI [42]: 55.8 µM
GI50 [43]: 3.88 µM
TGI [43]: > 100 µM
GI50 [44]: 3.4 µM
TGI [44]: 39.3 µM
GI50 [45]: 7.54 µM
TGI [45]: > 100 µM
GI50 [46]: 3.27 µM
TGI [46]: > 100 µM
GI50 [47]: 1.81 µM
TGI [47]: > 100 µM
GI50 [48]: 2.68 µM
TGI [48]: > 100 µM
GI50 [49]: 2.6 µM
TGI [49]: > 100 µM
GI50 [50]: 4.38 µM
TGI [50]: > 100 µM
